Test results reported in PubChem BioAssay AID1963433 (Molecular Pharmacology Branch, DTP, NCI, 2024).
Where “and” joins values, the source holds several entries; their conditions need not be identical. Equal entries are not always repeated.

Test system: 772245-204-R-J1-PDC complex spheroid growth
Test: Anticancer human tumor 772245-204-R-J1-PDC patient-derived rhabdomyosarcoma cell line growth inhibition [Asc]
Settings: for viability, T/C: stronger effect = lower value
Protocol: Multicellular complex tumor spheroid response to apoptosis pathway targeting inhibitors Alrizomadlin, Pelcitoclax, and Dasminapant in combination with a variety of drugs and investigational agents in selected tumor cell lines
The MDM2 inhibitor alrizomadlin, the Bcl-2/Bcl-xL inhibitor pelcitoclax, and the IAPs inhibitor dasminapant were evaluated both individually and in combination with standard of care and investigational anticancer small molecules within a complex spheroid model of solid tumors. . Complex spheroids include a stromal component modeled by human endothelial cells (HUVEC) and fibroblasts modeled by human mesenchymal stem cells (MSCs). The concentration ranges selected for each drug and investigational agent were based upon clinically achievable concentrations if the clinical Cmax of the agent was known.
Compounds. The drugs and investigational agents: alrizomadlin (APG-115; NSC831270), pelcitoclax (APG-1252; NSC835773), dasminapant (APG-1387;NSC834197), TAK-243 (NSC785004), copanlisib (NSC809693), olaparib (NSC753686), talazoparib (NSC767125), cobimetinib (NSC 768068), eltanexor (KPT-8602, NSC 794443), abemaciclib (NSC 768073), sotorasib (NSC818433), adagrasib (NSC 831453), MRTX-1133 (NSC 836407), Iadademestat (ORY1001, NSC 806812), and RMC-4630 (NSC839698), were obtained from the NCI Developmental Therapeutics Program Chemical Repository. The FDA-approved anticancer drug set is available from the Developmental Therapeutics Program at https://dtp.cancer.gov/organization/dscb/obtaining/available plates.htm. […] The stock solutions were prepared in dimethyl sulfoxide (DMSO, Sigma-Aldrich, St. Louis, MO, cat. D2650) at 800-fold the tested concentration and stored at -70 degrees C prior to their use. All drugs and investigational agents were tested over a range starting from a high concentration at or near the clinical Cmax and decreasing in half-log increments. If the clinical Cmax for an agent had not been determined, the highest concentration tested was 10 microM.
The patient-derived cancer (PDC) cell lines include five colon adenocarcinomas: 186277-243-T-J2-PDC, 616215-338-R-J1-PDC, 439559-082-T-J2-PDC, 463943-066-T-J2-PDC, and 519858-162-T-J1-PDC; three pancreatic carcinomas: 323965-272-R-J2-PDC, 521955-158-R6-J3-PDC, and 521955-158-R2-J5-PDC; two uterine sarcomas: 327498-152-R-J2-PDC and 993429-296-R-J1-PDC; two rhabdomyosarcomas: 755483-174-R-J1-PDC and 772245-204-R-J1-PDC; two soft tissue sarcomas: 126254-015-R-J1-PDC and 494315-158-R-J1-PDC; two malignant fibrous histiocytomas: 317291-083-R-J1-PDC and 596521-263-R-J1-PDC; two breast carcinomas: 171881-019-R-J1-PDC and 885512-296-R-J2-PDC; and one ovarian carcinoma: 6556581-035-R-J-PDC were obtained from the NCI PDMR, (https://pdmr.cancer.gov). The established cell lines HSSY-2 synovial sarcoma (RRID:CVCL 8719), SYO-1 synovial sarcoma (RRID:CVCL_7146), MPNST malignant peripheral neural sheath tumor were obtained from the Sloan Kettering Institute. The following established cell lines were purchased from the American Type Culture Collection (ATCC, Manassas, VA), Sor the received from the NCI repository:, PANC-1 pancreatic carcinoma (CRL-1469, RRID:CVCL_0480), OVCAR-5 ovarian carcinoma (RRID:CVCL_1628), OVCAR-8 ovarian carcinoma (RRID:CVCL_1629), , MCF-7 breast carcinoma (CRL-12584, RRID:CVCL_0031), MDA-MB-231 breast carcinoma (CRL-12532, RRID:CVCL_0062), NCI-H1876 small cell lung carcinoma (CRL-5902, RRID:CVCL_1503), NCI-H510A small cell lung carcinoma (HTB-184, RRID:CVCL_1565), NCI-H1417 (CRL-5869, RRID:CVCL_1469), and NCI-H196 small cell lung carcinoma (CRL-5823, RRID:CVCL_1509). Dr. Peter Houghton (Greehey Children's Cancer Research Institute, University of Texas Health Science Center, San Antonio, TX) provided Rh-18 rhabdomyosarcoma (RRID:CVCL_1659). Pooled donor human umbilical vein endothelial cells (HUVEC, Lonza, cat. CC-2519) and human mesenchymal stem cells (hMSC, Lonza, cat. PT-2501) were purchased from Lonza (Walkersville, MD).
Cell Culture. […]
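Also: compound exposure lasted seven days.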
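For viability, T/C in this document: 100% = DMSO vehicle control viability.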

For `C#Cc1c(F)ccc2cc(O)cc(-c3ncc4c(N5CC6CCC(C5)N6)nc(OCC56CCCN5CC(F)C6)nc4c3F)c12` (configuration not stated) + CCN1C(C(=O)NC23CCC(C(=O)O)(CC2)CC3)C(c2cccc(Cl)c2F)C2(C(=O)Nc3cc(Cl)ccc32)C12CCCCC2, the IC50 (curve of first compound, second compound 0.03 µM) was over 10 µM, the IC50 (curve of first compound, second compound 0.0949 µM) was over 10 µM and the IC50 (curve of first compound, second compound 0.3 µM) was over 10 µM. For the same molecule, the IC50 (curve of first compound, second compound 0.949 µM) was over 10 µM, the IC50 (curve of first compound, second compound 3 µM) was over 10 µM and the viability, T/C (second compound 0.03 µM, first compound 0.0316 µM) was 98.8%. The viability, T/C (second compound 0.03 µM, first compound 0.1 µM) was 106%, the viability, T/C (second compound 0.03 µM, first compound 0.316 µM) was 94.8% and the viability, T/C (second compound 0.03 µM, first compound 1 µM) was 95.8%. It also gave a viability, T/C (second compound 0.03 µM, first compound 3.16 µM) of 118%, a viability, T/C (second compound 0.03 µM, first compound 10 µM) of 89.5% and a viability, T/C (second compound 0.0949 µM, first compound 0.0316 µM) of 98.4%. The viability, T/C (second compound 0.0949 µM, first compound 0.1 µM) was 91.9%, the viability, T/C (second compound 0.0949 µM, first compound 0.316 µM) was 93% and the viability, T/C (second compound 0.0949 µM, first compound 1 µM) was 86%. It also gave a viability, T/C (second compound 0.0949 µM, first compound 3.16 µM) of 93.5%, a viability, T/C (second compound 0.0949 µM, first compound 10 µM) of 78.4% and a viability, T/C (second compound 0.3 µM, first compound 0.0316 µM) of 108%. For the same molecule, the viability, T/C (second compound 0.3 µM, first compound 0.1 µM) was 99.2%, the viability, T/C (second compound 0.3 µM, first compound 0.316 µM) was 106% and the viability, T/C (second compound 0.3 µM, first compound 1 µM) was 111%. The viability, T/C (second compound 0.3 µM, first compound 3.16 µM) was 81.2%, the viability, T/C (second compound 0.3 µM, first compound 10 µM) was 80.6% and the viability, T/C (second compound 0.949 µM, first compound 0.0316 µM) was 90%. It also gave a viability, T/C (second compound 0.949 µM, first compound 0.1 µM) of 90.9%, a viability, T/C (second compound 0.949 µM, first compound 0.316 µM) of 86% and a viability, T/C (second compound 0.949 µM, first compound 1 µM) of 86.9%. It also gave a viability, T/C (second compound 0.949 µM, first compound 3.16 µM) of 91.6%, a viability, T/C (second compound 0.949 µM, first compound 10 µM) of 76.5% and a viability, T/C (second compound 3 µM, first compound 0.0316 µM) of 73.1%. For the same molecule, the viability, T/C (second compound 3 µM, first compound 0.1 µM) was 79.2%, the viability, T/C (second compound 3 µM, first compound 0.316 µM) was 77.1% and the viability, T/C (second compound 3 µM, first compound 1 µM) was 67.8%. It also gave a viability, T/C (second compound 3 µM, first compound 3.16 µM) of 67.3% and a viability, T/C (second compound 3 µM, first compound 10 µM) of 54.2%.
`O=C(c1ccc(F)c(F)c1Nc1ccc(I)cc1F)N1CC(O)([C@@H]2CCCCN2)C1` + CNC(C)C(=O)NC1CN(S(=O)(=O)c2cccc(S(=O)(=O)N3CCC4CCC(C(=O)NC(c5ccccc5)c5ccccc5)N4C(=O)C(NC(=O)C(C)NC)C3)c2)CCC2CCC(C(=O)NC(c3ccccc3)c3ccccc3)N2C1=O gave an IC50 (curve of first compound, second compound 0.01 µM) of over 1 µM, an IC50 (curve of first compound, second compound 0.0316 µM) of over 1 µM and an IC50 (curve of first compound, second compound 0.1 µM) of over 1 µM. For the same molecule, the IC50 (curve of first compound, second compound 0.316 µM) was over 1 µM, the IC50 (curve of first compound, second compound 1 µM) was over 1 µM and the viability, T/C (second compound 0.01 µM, first compound 0.00316 µM) was 93.1%. It also gave a viability, T/C (second compound 0.01 µM, first compound 0.01 µM) of 85.4%, a viability, T/C (second compound 0.01 µM, first compound 0.0316 µM) of 93.3% and a viability, T/C (second compound 0.01 µM, first compound 0.1 µM) of 84.8%. For the same molecule, the viability, T/C (second compound 0.01 µM, first compound 0.316 µM) was 97.9%, the viability, T/C (second compound 0.01 µM, first compound 1 µM) was 105% and the viability, T/C (second compound 0.0316 µM, first compound 0.00316 µM) was 98.3%. It also gave a viability, T/C (second compound 0.0316 µM, first compound 0.01 µM) of 90.7%, a viability, T/C (second compound 0.0316 µM, first compound 0.0316 µM) of 95.2% and a viability, T/C (second compound 0.0316 µM, first compound 0.1 µM) of 93.2%. For the same molecule, the viability, T/C (second compound 0.0316 µM, first compound 0.316 µM) was 101%, the viability, T/C (second compound 0.0316 µM, first compound 1 µM) was 95.4% and the viability, T/C (second compound 0.1 µM, first compound 0.00316 µM) was 93.3%. For the same molecule, the viability, T/C (second compound 0.1 µM, first compound 0.01 µM) was 84.8%, the viability, T/C (second compound 0.1 µM, first compound 0.0316 µM) was 90.1% and the viability, T/C (second compound 0.1 µM, first compound 0.1 µM) was 87.6%. For the same molecule, the viability, T/C (second compound 0.1 µM, first compound 0.316 µM) was 103%, the viability, T/C (second compound 0.1 µM, first compound 1 µM) was 77.9% and the viability, T/C (second compound 0.316 µM, first compound 0.00316 µM) was 91.7%. It also gave a viability, T/C (second compound 0.316 µM, first compound 0.01 µM) of 88.1%, a viability, T/C (second compound 0.316 µM, first compound 0.0316 µM) of 96.8% and a viability, T/C (second compound 0.316 µM, first compound 0.1 µM) of 99.8%. It also gave a viability, T/C (second compound 0.316 µM, first compound 0.316 µM) of 103%, a viability, T/C (second compound 0.316 µM, first compound 1 µM) of 112% and a viability, T/C (second compound 1 µM, first compound 0.00316 µM) of 100%. For the same molecule, the viability, T/C (second compound 1 µM, first compound 0.01 µM) was 89.7%, the viability, T/C (second compound 1 µM, first compound 0.0316 µM) was 88.8% and the viability, T/C (second compound 1 µM, first compound 0.1 µM) was 92%. It also gave a viability, T/C (second compound 1 µM, first compound 0.316 µM) of 94.5% and a viability, T/C (second compound 1 µM, first compound 1 µM) of 97.6%.
For `Cc1nc(N2CCC3(CC2)COC(C)C3N)c(CO)nc1Sc1ccnc(N)c1Cl` (configuration not stated), the viability, T/C (compound 0.00949 µM) was 98.8% and 123% and 100%, the viability, T/C (compound 0.03 µM) was 104% and 119% and 120% and the viability, T/C (compound 0.0949 µM) was 112% and 104% and 89.2%. For the same molecule, the viability, T/C (compound 0.3 µM) was 106% and 90.1% and 102%, the viability, T/C (compound 0.949 µM) was 99.9% and 85.1% and 77% and the viability, T/C (compound 3 µM) was 91.5% and 57.5% and 54.3%. For the same molecule, the IC50 (curve of compound) was over 3 µM.
